“And” between values parts separate entries of the source, which are not always exact repeats. Equal entries are not always repeated.
Experiments:
[1] = test system: pentylenetetrazole (PTZ)-induced convulsions; assay: Antagonism to pentylenetetrazole (PTZ) convulsions; format: in vivo; conditions: for ED50 (by PTZ antagonism) / ED50: mice, i.p. 45 min before PTZ 90 mg/kg s.c., confidence limits in brackets, p = 0.05; for TI: therapeutic index TI = LD50/ED50; for ED50: Mus musculus, read-out: ED50 (by PTZ antagonism)
Procedure: (§1) The study of the anticonvulsant activity of hybrids 7a–u was assessed by evaluating the antagonism to pentylenetetrazole (PTZ), thiosemicarbazide convulsive seizures, and maximal electroshock-induced seizures (MES). The PTZ-induced test is considered an experimental model for the clonic component of epilepsy seizures and the prognostic anxiolytic activity of the compounds. PTZ is a common convulsive agent used in animal models to investigate the mechanisms of seizures. The model of thiosemicarbazide (TSC) seizures (affecting the exchange of GABA) causes clonic seizures similar to pentylenetetrazole ones. The MES test is used as an animal model for the generalization of tonic seizures in epilepsy. The neurotoxicity and side effects of the compounds (movement coordination disorder, myorelaxation, and ataxia) were also studied on mice with the “rotating rod”[29] test.
The anticonvulsant effect of the newly synthesized compounds was investigated by tests comprising pentylenetetrazole, thiosemicarbazide convulsions, and maximal electroshock (MES). Outbred mice (weight 18–22 g) were used for the study. […] Each animal is placed into an individual plastic cage for observation lasting 1 h. Seizures and clonic convulsions were recorded. […] The control animals were administered as an emulsifier. Every dose of each test compound was studied in six animals.
(§2) Adverse neurotoxic (muscle relaxant) effects of compounds were studied at doses of 50 to 500 mg/kg when administered intraperitoneally, as well as reference drugs in effect at anticonvulsant doses. Myorelaxation was investigated with the test of a “rotating rod” in mice. To this end, mice were planted on a metal rod with a corrugated rubber coating, which rotated at a speed of 5 revolutions per minute. The number of animals that cnot stay on it for 2 min was determined. To determine the ED50, neurotoxic TD50, and LD50, the statistical method of penetration by Litchfield and Wilcoxon was used.

[2] = test system: mice; assay: Rotating rod test (neurotoxicity, myorelaxation); format: in vivo; conditions: i.p., myorelaxation in 50% of animals
Procedure: as §1, §2

[3] = test system: mice; assay: in vivo; conditions: dead animals after 24 h
Procedure: as §2

[4] = test system: thiosemicarbazide (TSC)-induced convulsions; assay: Thiosemicarbazide (TSC) seizures; format: in vivo, mice; conditions: mice; for Latency of Convulsions, Induced by TSC, M ± M: compound 100 mg/kg i.p. 45 min before TSC 18 mg/kg s.c.; for Latency of Convulsions, Induced by TSC, I (index of latent period of TSC seizures) / response vs control in vivo at 100 mg/kg: compound 100 mg/kg i.p., relative to control = 1.0; for response vs control in vivo at 100 mg/kg: Mus musculus, ip, read-out: Latency of Convulsions, Induced by TSC, I (index of latent period of TSC seizures)
Procedure: as §1
Thiosemicarbazide, an antimetabolite of GABA inhibitor (glutamic acid decarboxylase) in the brain, is administered subcutaneously to mice at a dose of 18 mg/kg as a 0.5% solution, which causes clonic convulsions in animals. Anti-thiosemicarbazide activity was evaluated based on the latency time of the onset of seizures. Compounds were administered intraperitoneally at doses of 100 mg/kg in suspension with carboxymethylcellulose and Tween-80 45 min before administration of thiosemicarbazide.

[5] = test system: rats; assay: Open field test; format: in vivo; conditions: 50 mg/kg i.p.; for Cells Examination, amount (absolute data during 5 min): control 2.4 ± 0.67; for Vertical Displacement, amount (absolute data during 5 min): control 7.0 ± 2.14; for Horizontal Displacement, amount (absolute data during 5 min): control 21.6 ± 2.25
Procedure: Open field test. The research-motor behavior of rats was studied on a modified “open field” model. For this purpose, an installation was used, the bottom of which is divided into squares with holes (cells). Experiments were performed in the daytime with natural light. Within 5 min of the experiment, the indicators of sedative and activating behavior were determined, namely the number of horizontal movements, standing on the hind legs (vertical movements), and sniffing of the cells. The number of animals on this model was eight for each compound, control, and reference drug.

[6] = test system: mouse; assay: Elevated plus maze (EPM) test; format: in vivo; conditions: 50 mg/kg i.p., 5 min; for Number of Entries into the Closed Arms: control 9.4 ± 1.6; for Time Spent in the Center: control 28.2 ± 3.12; for Time Spent in Closed Arms: control 269.2 ± 10.4
From the text: Elevated plus maze—EPM test. Anti-anxiety and sedative effects were studied on mouse a model of the “elevated plus maze”. The labyrinth is a cruciform machine raised above the floor, with a pair of open and closed sleeves opposed to each other. Normal animals prefer to spend most of their time in the closed (dark) sleeves of the labyrinth. The anxiolytic effect of the compounds was estimated by the increase in the number of entries into open (light) sleeves and the time spent in them without increasing the total motor activity. This records the time spent in the closed sleeve and the number of attempts to enter the installation center. In the above model, the test compounds and the reference drug were injected intraperitoneally before the experiments. The control animals were administered as an emulsifier. Results were processed statistically (p < 0.05).

[7] = test system: mice; assay: Forced swimming test; conditions: 50 mg/kg, 6 min; for Total Time of Immobilization: control 42.0 ± 7.24; for Total Time of Active Swimming: control 318.0 ± 8.36;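 as to all read-outs here: mice made to swim in a water-filled glass vessel under natural light, with durations of active swimming and immobility recorded across the 6 min session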
Procedure: Forced swimming test. To assess “despair and depression”, the “compelling swimming” model was used. Experimental animals were forced to swim in a glass container (height 22 cm, diameter 14 cm), filled 1/3 with water. […] The latent period of immobilization, the total duration of active swimming and immobilization are fixed at 6 min (the experiments were conducted under natural light).

[8] = Rotating rod test (neurotoxicity, myorelaxation); format: in vivo; conditions: outbred, mouse, in vivo, ip, mice, myorelaxation in 50% of animals
Procedure: as §1, §2

[9] = in vivo; conditions: outbred, mouse, in vivo; mice, dead animals after 24 h
Procedure: as §2

[10] = test system: rats; assay: Electroshock retrograde amnesia, conditioned response of passive avoidance (CRPA); format: in vivo; conditions: 50 mg/kg, study for 5 min; for The Time Spent in the Light Chamber during the Training of the CRPA, First Day: control 280.0 ± 7.5; for The Time Spent in the Light Chamber When Playing CRPA + MESH after 24 h, Second Day: control 281.0 ± 6.1
Procedure: Test for learning and memory. The antiamnesic properties of the compounds were studied using an electroshock amnesia model modified by J. Bures, O. Buresova. In rats, a conditioned passive avoidance reaction (CRPA) to a dark-light setting was developed, while the training of the animals with CRPA was recorded. The residence times in the light and dark compartments were recorded for 5 min (300 s). Then, in the dark compartment, the animal received a single current shock (0.4 mA) through the electrode floor (training). To obtain amnesia, a maximum electroconvulsive seizure is induced in animals (conducting a maximum electric current of 50 Hz for 0.2 s through corneal electrodes). Conducting an electric shock immediately after training causes the erasure of the memory trace. The test for reproduction is carried out 24 h after training—after the development of CRPA. During this period, the control animals forget the training and prefer to be in the dark part of the chamber. An increase in the time spent by rats in the light compartment compared to the control on the second day indicates the presence of antiamnestic properties of the compounds.

Compound	ED50 (by PTZ antagonism) [1]	TI [1]	TD50 [2] [mg/kg]	LD50 [3]	Latency of Convulsions, Induced by TSC, M ± M [4] [min]	Cells Examination, amount (absolute data during 5 min) [5]	Vertical Displacement, amount (absolute data during 5 min) [5]	Horizontal Displacement, amount (absolute data during 5 min) [5]	Time Spent in the Open Arms ([6]; control 2.6 ± 1.6) [s]	Number of Entries into the Closed Arms [6]	Time Spent in the Center [6] [s]	Time Spent in Closed Arms [6] [s]	Total Time of Immobilization [7] [s]	Total Time of Active Swimming [7] [s]	ED50 [1] [mg/kg]	TD50 at 2 min [8] [mg/kg]	LD50 at 24 h [9] [mg/kg]	response vs control in vivo at 100 mg/kg [4] [%]	The Time Spent in the Light Chamber during the Training of the CRPA, First Day [10] [s]	The Time Spent in the Light Chamber When Playing CRPA + MESH after 24 h, Second Day [10] [s]	further results
6-{4-[(4-{[(4-Cyano-1-methyl-5,6,7,8-tetrahydroisoquinolin-3-yl)oxy]methyl}-1H-1,2,3-triazol-1-yl)acetyl]piperazin-1-yl}-3,3-dimethyl-1-propyl-3,4-dihydro-1H-pyrano [3,4-c]pyridine-5-carbonitrile [7f]	28 (22.2 ÷ 35.3) mg/kg	28.9	>500	810 (686 ÷ 956) mg/kg	40.6 ± 1.11	3.2 ± 1.03	10.8 ± 3.67	39.2 ± 4.92	16.0 ± 2.09	3.0 ± 0.89	22.0 ± 6.32	264.0 ± 13.48	66.0 ± 4.48	296.0 ± 16.85							Latency of Convulsions, Induced by TSC, I (index of latent period of TSC seizures) [4]: 4.06
6-{4-[(4-{[(5-Cyano-3,3-dimethyl-8-propyl-3,4-dihydro-1H-pyrano [3,4-c]pyridin-6-yl)oxy]methyl}-1H-1,2,3-triazol-1-yl)acetyl]piperazin-1-yl}-1-ethyl-3,3-dimethyl-3,4-dihydro-1H-pyrano [3,4-c]pyridine-5-carbonitrile [7t]	30 (24.2 ÷ 42) mg/kg	25.6	>500	768 (640 ÷ 922) mg/kg	43.8 ± 4.34	2.6 ± 0.79	10.6 ± 3.84	46.0 ± 7.37	23.0 ± 5.51	1.6 ± 0.67	9.0 ± 2.2	268.0 ± 5.56	62.0 ± 6.77	298.0 ± 16.64							Latency of Convulsions, Induced by TSC, I (index of latent period of TSC seizures) [4]: 4.38
Cc1nc(N2CCN(C(=O)Cn3cc(COc4nc(C(C)C)c5c(c4C#N)CCC5)nn3)CC2)c(C#N)c2c1COC(C)(C)C2 [7a, 6-{4-[(4-{[(4-Cyano-1-isopropyl-6,7-dihydro-5H-cyclopenta[c]pyridin-3-yl)oxy]methyl}-1H-1,2,3-triazol-1-yl)acetyl]piperazin-1-yl}-3,3,8-trimethyl-3,4-dihydro-1H-pyrano [3,4-c]pyridine-5-carbonitrile]		44.5			43.0 ± 5.2	8.6 ± 1.89	6.8 ± 3.42	44.4 ± 10.1	15.0 ± 2.1	5.6 ± 2.1	22.4 ± 3.99	262.6 ± 14.6	18.6 ± 3.2	341.4 ± 6.2	20	> 500	890	430	286.0 ± 4.3	298.0 ± 6.9	
Cc1nc(N2CCN(C(=O)Cn3cc(COc4nc(-c5ccco5)c5c(c4C#N)CCCC5)nn3)CC2)c(C#N)c2c1COC(C)(C)C2 [7j, 6-(4-{[4-({[4-Cyano-1-(2-furyl)-5,6,7,8-tetrahydroisoquinolin-3-yl]oxy}methyl)-1H-1,2,3-triazol-1-yl]acetyl}piperazin-1-yl)-3,3,8-trimethyl-3,4-dihydro-1H-pyrano [3,4-c]pyridine-5-carbonitrile]		42.3			41.0 ± 3.95	9.8 ± 3.53	10 ± 3.39	54.6 ± 10.03	19.6 ± 3.5	5.9 ± 2.1	19.2 ± 4.15	261.2 ± 20.8	14.0 ± 3.37	346.0 ± 11.35	22	> 500	930	410	293.0 ± 7.2	120.0 ± 5.8	
Cc1nc(OCc2cn(CC(=O)N3CCN(c4nc(C)c5c(c4C#N)CC(C)(C)OC5)CC3)nn2)c(C#N)c2c1COC(C)(C)C2 [7m, 6-{4-[(4-{[(5-Cyano-3,3,8-trimethyl-3,4-dihydro-1H-pyrano [3,4-c]pyridin-6-yl)oxy]methyl}-1H-1,2,3-triazol-1-yl)acetyl]piperazin-1-yl}-3,3,8-trimethyl-3,4-dihydro-1H-pyrano [3,4-c]pyridine-5-carbonitrile]		54.7			36.6 ± 1.11	13.4 ± 5.56	12 ± 3.95	59.8 ± 9.58		6.4 ± 1.11	48.8 ± 5.14	175.4 ± 6.23	5.0 ± 1.2	355.0 ± 5.0	15	> 500	820	366	282.0 ± 6.8	296.0 ± 5.4	Time Spent in the Open Arms ([6]; control 2.6 ± 1.6, 50 mg/kg): 66.4 s and 66.4 ± 7.78 s

From article PMC9920413, “New Bicyclic Pyridine-Based Hybrids Linked to the 1,2,3-Triazole Unit: Synthesis via Click Reaction and Evaluation of Neurotropic Activity and Molecular Docking” (Molecules, 2023)
